Measurements from patent publication US20130123460A1, “PEPTIDE FOR IMPROVING BIOSTABILITY OF BIOACTIVE SUBSTANCE, AND BIOACTIVE SUBSTANCE HAVING IMPROVED BIOSTABILITY” (priority 2010, published 2013).
Where a SMILES comes first, the peptide text is derived from it. Bridges are numbered along the chain shown (N, C = ends).

What was measured:
endogenous SSTR 5 = target: T1, endogenous SSTR 5 (Mus musculus, UniProt O08858); assay: Suppressibility of insulin secretion in MIN 6 cells; format: cell-based; conditions: 20 mM glucose, 1-1000 nM
T1 construct: expressing an endogenous SSTR 5; endogenous in cells; host or cells: MIN 6 mouse insulinoma cells (obtained from a person)
T1 sequence (O08858 1-362): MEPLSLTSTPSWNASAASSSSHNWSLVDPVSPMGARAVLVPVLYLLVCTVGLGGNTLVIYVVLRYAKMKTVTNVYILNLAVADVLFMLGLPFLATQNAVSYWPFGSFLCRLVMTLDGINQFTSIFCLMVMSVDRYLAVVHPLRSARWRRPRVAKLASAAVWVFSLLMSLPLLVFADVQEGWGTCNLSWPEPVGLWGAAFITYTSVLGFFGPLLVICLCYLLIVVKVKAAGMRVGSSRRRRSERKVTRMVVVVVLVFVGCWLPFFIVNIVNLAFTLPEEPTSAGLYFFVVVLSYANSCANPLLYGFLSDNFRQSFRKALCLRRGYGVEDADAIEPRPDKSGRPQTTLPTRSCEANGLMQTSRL
Protocol: The suppressibility of insulin secretion was evaluated using MIN 6 (obtained from a person) which was an insulinoma cell derived from a mouse, expressing an endogenous SSTR 5. MIN 6 was seeded on a multi-plate, which was cultivated at 37° C. for 48 hours. […] A supernatant thereof was recovered, and an amount of insulin secreted was measured. The measurement of the insulin was performed in an enzyme-linked immunosorbent assay (ELISA), and an absorbance was measured at 450 nm (a sub-wavelength: 620 nm) after the addition of a substrate.
In this experiment, the activity evaluations of the native SRIF (Comparative Example 15) and the GAm (28-44)-SRIF-NH2(Example 29) were performed in a concentration of 1, 3, 10, 30, 100, 300, and 1000 nM, and the maximum suppression rate (%) of the insulin secretion was calculated. The maximum suppression rate (%) of the insulin secretion in the somatostatin peptide complex was calculated according to the following formula. Maximum Suppression Rate (%) of Insulin Secretion (%)=[{(the maximum value of the suppression of the insulin secretion in the SRIF peptide complex)/(the maximum value of the suppression of the insulin secretion in the native SRIF)]×100

[1] = Plasma stability of somatostatin peptide complex (remaining rate in rat plasma); conditions: for remaining at 8 h, 0.5 μmol/L / remaining at 48 h, 0.5 μmol/L: SD, rat, plasma
Protocol: (§1) The plasma stability was evaluated in vitro, in order to inspect the biostability of the somatostatin peptide complex.
(§2) SD rats were anesthetized with diethyl ether, whole blood was collected, and a plasma fraction was separated therefrom. The somatostatin or somatostatin peptide complex was added to the plasma so that the final concentration thereof was 0.5 μmol/L, and the mixture was incubated at 37° C. A sample was recovered after 0, 8 or 48 hours, and a remaining rate was evaluated by an HPLC/MS measurement of an amount of the somatostatin or somatostatin peptide complex.

[2] = Plasma stability of ghrelin peptide complex (remaining rate in rat plasma); format: in vitro ADME, SD rats; conditions: 37° C.
Protocol: Evaluation was performed in a manner in which after the treatment of the ghrelin or ghrelin peptide complex in plasma for a pre-determined time, an amount of change of the ghrelin or ghrelin peptide complex undecomposed was measured by an HPLC/MS.

in vitro = conditions: SD, rat, plasma
Protocol: as §1, §2

db/db mice = assay: Sustained blood glucose-lowering effect in type 2 diabetes mellitus model mice; format: in vivo; conditions: subcutaneous, 50 nmol/kg
Protocol: The improvement of the biostability was evaluated using a duration time of blood glucose-lowering effect in vivo as an indicator. […] The blood glucose level was measured using Glucose Test Wako (Wako Pure Chemical Industries, Ltd.).

[3] = somatostatin complexes, rat plasma, 0.5 μmol/L, 37° C.

| Molecule | Suppression rate of insulin secretion (%), maximum, relative to native SRIF (endogenous SSTR 5) [%] | remaining at 8 h, 0.5 μmol/L [1] [%] | remaining at 48 h, 0.5 μmol/L [1] [%] | Remaining rate in plasma after 8 hours (%) [1, 3] | further results |
| --- | --- | --- | --- | --- | --- |
| C[C@H](N)C(=O)NCC(=O)N[C@H]1CSSC[C@@H](C(N)=O)NC(=O)[C@H](CO)NC(=O)[C@H]([C@@H](C)O)NC(=O)[C@H](Cc2ccccc2)NC(=O)[C@H]([C@@H](C)O)NC(=O)[C@H](CCCCN)NC(=O)[C@H](Cc2c[nH]c3ccccc23)NC(=O)[C@H](Cc2ccccc2)NC(=O)[C@H](Cc2ccccc2)NC(=O)[C@H](CC(N)=O)NC(=O)[C@H](CCCCN)NC1=O [Comparative Example 15, SRIF(1-14)-NH2, reference compound] | 100 | 0 | 0 | completely decomposed | – |
| CCCCCCCC(=O)OC[C@H](NC(=O)[C@H](CO)NC(=O)CN)C(=O)N[C@@H](Cc1ccccc1)C(=O)N[C@@H](CC(C)C)C(=O)N[C@@H](CO)C(=O)N1CCC[C@H]1C(=O)N[C@@H](CCC(=O)O)C(=O)N[C@@H](Cc1c[nH]cn1)C(=O)N[C@@H](CCC(N)=O)C(=O)N[C@@H](CCCNC(=N)N)C(=O)N[C@H](C(=O)N[C@@H](CCC(N)=O)C(=O)N[C@@H](CCC(N)=O)C(=O)N[C@@H](CCCNC(=N)N)C(=O)N[C@@H](CCCCN)C(=O)N[C@@H](CCC(=O)O)C(=O)N[C@@H](CO)C(=O)N[C@@H](CCCCN)C(=O)N[C@@H](CCCCN)C(=O)N1CCC[C@H]1C(=O)N1CCC[C@H]1C(=O)N[C@@H](C)C(=O)N[C@@H](CCCCN)C(=O)N[C@@H](CC(C)C)C(=O)N[C@@H](CCC(N)=O)C(=O)N1CCC[C@H]1C(=O)N[C@@H](CCCNC(=N)N)C(N)=O)C(C)C [Comparative Example 17, Ghrelin(1-28)-NH2] | – | – | – | – | Remaining rate in plasma after 2 hours (%) ([2]; 0.5 μmol/L, 2 hours): 14%; remaining at 0.5 h, 0.5 μmol/L ([2]; SD, 0.5 hour, read-out: Remaining rate in plasma after 0.5 hour (%)): 50%; remaining at 2 h, 0.5 μmol/L ([2]; SD, 2 hours, read-out: Remaining rate in plasma after 2 hours (%)): 14%; remaining at 8 h, 0.5 μmol/L ([2]; SD, 8 hours, read-out: Remaining rate in plasma after 8 hours (%)): 0% |
| CC[C@H](C)[C@H](NC(=O)[C@H](CCC(=O)O)NC(=O)[C@H](CC(=O)O)NC(=O)[C@@H](NC(=O)[C@H](CC(C)C)NC(=O)[C@H](C)NC(=O)[C@H](CCCCN)NC(=O)[C@@H](NC(=O)CNC(=O)[C@H](CCC(=O)O)NC(=O)[C@@H](NC(=O)[C@@H](NC(=O)[C@H](CCCCN)NC(=O)[C@H](C)NC(=O)[C@@H]1CSSC[C@H](NC(=O)CNC(=O)[C@H](C)N)C(=O)N[C@@H](CCCCN)C(=O)N[C@@H](CC(N)=O)C(=O)N[C@@H](Cc2ccccc2)C(=O)N[C@@H](Cc2ccccc2)C(=O)N[C@@H](Cc2c[nH]c3ccccc23)C(=O)N[C@@H](CCCCN)C(=O)N[C@@H]([C@@H](C)O)C(=O)N[C@@H](Cc2ccccc2)C(=O)N[C@@H]([C@@H](C)O)C(=O)N[C@@H](CO)C(=O)N1)[C@@H](C)O)C(C)C)C(C)C)[C@@H](C)CC)C(=O)N[C@@H](CC(C)C)C(=O)N[C@@H](C)C(=O)N[C@@H](C)C(N)=O [Example 28, SRIF(1-14)-GAm(28-44)-NH2] (H-AGCKNFFWKTFTSCAKTVEGVKALIDEILAA-NH2; disulfide 3-14; N-terminus assumed) | – | – | – | – | remaining at 8 h, 0.5 μmol/L (in vitro): 56%; remaining at 48 h, 0.5 μmol/L (in vitro): 0% |
| CC[C@H](C)[C@H](NC(=O)[C@H](CCC(=O)O)NC(=O)[C@H](CC(=O)O)NC(=O)[C@@H](NC(=O)[C@H](CC(C)C)NC(=O)[C@H](C)NC(=O)[C@H](CCCCN)NC(=O)[C@@H](NC(=O)CNC(=O)[C@H](CCC(=O)O)NC(=O)[C@@H](NC(=O)[C@@H](NC(=O)[C@H](CCCCN)NC(=O)[C@H](C)N)[C@@H](C)O)C(C)C)C(C)C)[C@@H](C)CC)C(=O)N[C@@H](CC(C)C)C(=O)N[C@@H](C)C(=O)N[C@@H](C)C(=O)N[C@@H](C)C(=O)NCC(=O)N[C@H]1CSSC[C@@H](C(N)=O)NC(=O)[C@H](CO)NC(=O)[C@H]([C@@H](C)O)NC(=O)[C@H](Cc2ccccc2)NC(=O)[C@H]([C@@H](C)O)NC(=O)[C@H](CCCCN)NC(=O)[C@H](Cc2c[nH]c3ccccc23)NC(=O)[C@H](Cc2ccccc2)NC(=O)[C@H](Cc2ccccc2)NC(=O)[C@H](CC(N)=O)NC(=O)[C@H](CCCCN)NC1=O [Example 29, GAm(28-44)-SRIF(1-14)-NH2] (H-AKTVEGVKALIDEILAAAGCKNFFWKTFTSC-NH2; disulfide 20-31; N-terminus assumed) | 90 | 80 | 23 | 80% | Remaining rate in plasma after 48 hours (%) ([1]; somatostatin complexes, rat plasma, 0.5 μmol/L, 37° C., 48 hours): 23% |
| [Ser8]-GLP-1(7-36)-NH2 [Comparative Example 2] | – | – | – | – | Time after administration at which the glucose-lowering effect disappeared (db/db mice): two hours |
